In US20130096170A1 (priority 2011, published 2013):
Entries after “also recorded” stand apart in the source; their conditions may differ.

Tested on: prenatal Cynomolgus monkey brains (frontal cortex)
[1] = Group 2, 20 mg/kg im + 20-50 mg/kg/hr, 5 fetal brains examined

## CNC1(c2ccccc2Cl)CCCCC1=O (centres unmarked) [ketamine]
[1]
  Severity scoring of neuroapoptotic lesions, Activated caspase 3: 3.5 ± 0.7
  Severity scoring of neuroapoptotic lesions, HE: 1.9 ± 1.2
  Severity scoring of neuroapoptotic lesions, Silver: 2.0 ± 0.8
  Severity scoring of neuroapoptotic lesions, TUNEL: 2.9 ± 1.1
Group 2: 20 mg/kg IM+20-50 mg/kg/hr ketamine to pregnant monkeys, H&E, silver, TUNEL, AC3
  neuroapoptotic lesions / damaged and apoptotic cells in fetal frontal cortex: abundant neuroapoptotic lesions; also recorded: moderate to large number of damaged and apoptotic cells; also recorded: marked neuroapoptosis and cellular damage with necrosis
